{"source": "patent EP4786487A1", "about": "“PEPTIDE” (Peptidream Inc, priority 2023, dated 2025)", "type_in_all_cases": "cell-based", "key": {"Myostatin [1]": {"target": "T1, Myostatin (Homo sapiens, UniProt O14793)", "T1 construct": "active myostatin (also called mature myostatin) is a homodimer consisting of two C-terminal growth factor domains; purchased R&D systems 788-G8/CF", "T1 sequence (O14793 267-375)": "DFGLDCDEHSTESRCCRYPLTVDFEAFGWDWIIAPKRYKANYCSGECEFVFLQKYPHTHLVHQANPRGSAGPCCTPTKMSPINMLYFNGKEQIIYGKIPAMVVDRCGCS", "test": "Reporter gene assay for myostatin signaling in HepG2 cell line, Evaluation Procedure (1), myostatin inhibition", "details": "Method A: Myostatin 10 ng/mL; read-out: IC50 (Luciferase) Myostatin HepG2", "how_it_was_run": "(§1)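 IC50 derived from One-Glo luciferase luminescence after 20–24 h at 37 °C. Peptides titrated 4-fold at 0.006–100 nmol/L against myostatin or 0.12–2000 nmol/L against GDF-11 in HepG2 cells carrying a transfected CAGA12-luciferase reporter, kept in 0.1% BSA EMEM.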"}, "Myostatin [2]": {"test_system": "Myostatin", "test": "Reporter gene assay for myostatin signaling in HepG2 cell line, Evaluation Procedure (1), myostatin inhibition", "details": "Method A; GDF-11 IC50 versus Myostatin IC50", "how_it_was_run": "as §1"}, "GDF-11": {"target": "T2, GDF-11 (Homo sapiens, UniProt O95390)", "T2 construct": "purchased R&D systems 1958-GD-G8/CF", "T2 sequence (O95390 299-407)": "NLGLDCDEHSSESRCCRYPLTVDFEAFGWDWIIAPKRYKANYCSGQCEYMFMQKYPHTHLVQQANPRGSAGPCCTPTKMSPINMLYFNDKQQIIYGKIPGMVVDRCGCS", "test": "Reporter gene assay for myostatin signaling in HepG2 cell line, Evaluation Procedure (1), GDF-11 inhibition", "details": "Method A: GDF-11 10 ng/mL; read-out: IC50 (Luciferase) GDF-11 HepG2", "how_it_was_run": "as §1"}}, "note": "Starred links: 1 amine or outer side, 2 acyl side, 3 side chain; linkers in the order of their positions; H or OH if unused. Positions of bridges follow the written chain, without caps; N, C: chain ends. Non-standard residues stand in square brackets, D forms with d. Residues, ends and D or L forms follow the SMILES beside them. Phe(3-OCH2COOH) = N[C@@H](Cc1cccc(OCC(=O)O)c1)C(=O)O; Phe(4-COOH) = N[C@@H](Cc1ccc(C(=O)O)cc1)C(=O)O; Trp(7-aza) = N[C@@H](Cc1c[nH]c2ncccc12)C(=O)O; Gly(N(CH2)3COOH) = O=C(O)CCCNCC(=O)O; X1 = CCCCCCC[C@H](N[*:1])C(=O)[*:2]; NMeF = CN[C@@H](Cc1ccccc1)C(=O)O; 4Pal = N[C@@H](Cc1ccncc1)C(=O)O; NMeA = CN[C@@H](C)C(=O)O; Sar = CNCC(=O)O"}
{"compound": "CCCCCCC[C@@H]1NC(=O)[C@H](Cc2ccccc2)N(C)C(=O)[C@H](CCCNC(=N)N)NC(=O)[C@H](Cc2ccc(C(=O)O)cc2)NC(=O)[C@H](Cc2ccc(O)cc2)NC(=O)CN(C)C(=O)[C@H]([C@@H](C)CC)NC(=O)[C@H](Cc2ccccc2)N(C)C(=O)[C@H](Cc2ccc(O)cc2)NC(=O)[C@H](Cc2c[nH]c3ccccc23)NC(=O)[C@H](C)NC(=O)CN(CCCC(=O)O)C(=O)CSC[C@H](C(=O)O)NC(=O)[C@H](Cc2ccccc2)N(C)C(=O)[C@H](C)N(C)C1=O", "note": "[Myostatin_99_v167] ({CH2CO}-[Gly(N(CH2)3COOH)]AWY[NMeF]I[Sar]Y[Phe(4-COOH)]R[NMeF][X1][NMeA][NMeF][dC]-OH; thioether N-15)", "values": [{"measurement": "IC50", "setting": "Myostatin [1]", "value": 0.0045, "unit": "µM"}, {"measurement": "Selectivity", "setting": "Myostatin [2]", "value": 48}, {"measurement": "IC50", "setting": "GDF-11", "value": 0.214, "unit": "µM"}]}
{"compound": "CCCCCCC[C@@H]1NC(=O)[C@H](Cc2ccccc2)N(C)C(=O)[C@H](CCCNC(=N)N)NC(=O)[C@H](Cc2ccc(C(=O)O)cc2)NC(=O)[C@H](Cc2ccc(O)cc2)NC(=O)CN(C)C(=O)[C@H]([C@@H](C)CC)NC(=O)[C@H](Cc2ccccc2)N(C)C(=O)[C@H](Cc2ccc(O)cc2)NC(=O)[C@H](Cc2c[nH]c3ncccc23)NC(=O)[C@H](C)NC(=O)CN(CCCC(=O)O)C(=O)CSC[C@H](C(=O)O)NC(=O)[C@H](Cc2ccccc2)N(C)C(=O)[C@H](C)N(C)C1=O", "note": "[Myostatin_99_v168] ({CH2CO}-[Gly(N(CH2)3COOH)]A[Trp(7-aza)]Y[NMeF]I[Sar]Y[Phe(4-COOH)]R[NMeF][X1][NMeA][NMeF][dC]-OH; thioether N-15)", "values": [{"measurement": "IC50", "setting": "Myostatin [1]", "value": 0.0021, "unit": "µM"}, {"measurement": "Selectivity", "setting": "Myostatin [2]", "value": 57}, {"measurement": "IC50", "setting": "GDF-11", "value": 0.119, "unit": "µM"}]}
{"compound": "CCCCCCC[C@@H]1NC(=O)[C@H](Cc2ccccc2)N(C)C(=O)[C@H](CCCNC(=N)N)NC(=O)[C@H](Cc2ccc(C(=O)O)cc2)NC(=O)[C@H](Cc2ccncc2)NC(=O)CN(C)C(=O)[C@H]([C@@H](C)CC)NC(=O)[C@H](Cc2ccccc2)N(C)C(=O)[C@H](Cc2ccc(O)cc2)NC(=O)[C@H](Cc2c[nH]c3ccccc23)NC(=O)[C@H](C)NC(=O)CN(CCCC(=O)O)C(=O)CSC[C@H](C(=O)O)NC(=O)[C@H](Cc2ccccc2)N(C)C(=O)[C@H](C)N(C)C1=O", "note": "[Myostatin_99_v169] ({CH2CO}-[Gly(N(CH2)3COOH)]AWY[NMeF]I[Sar][4Pal][Phe(4-COOH)]R[NMeF][X1][NMeA][NMeF][dC]-OH; thioether N-15)", "values": [{"measurement": "IC50", "setting": "Myostatin [1]", "value": 0.0012, "unit": "µM"}, {"measurement": "Selectivity", "setting": "Myostatin [2]", "value": 310}, {"measurement": "IC50", "setting": "GDF-11", "value": 0.372, "unit": "µM"}]}
{"compound": "CCCCCCC[C@@H]1NC(=O)[C@H](Cc2ccccc2)N(C)C(=O)[C@H](CCCNC(=N)N)NC(=O)[C@H](Cc2ccc(C(=O)O)cc2)NC(=O)[C@H](Cc2ccncc2)NC(=O)CN(C)C(=O)[C@H]([C@@H](C)CC)NC(=O)[C@H](Cc2ccccc2)N(C)C(=O)[C@H](Cc2ccc(O)cc2)NC(=O)[C@H](Cc2c[nH]c3ncccc23)NC(=O)[C@H](C)NC(=O)CN(CCCC(=O)O)C(=O)CSC[C@H](C(=O)O)NC(=O)[C@H](Cc2ccccc2)N(C)C(=O)[C@H](C)N(C)C1=O", "note": "[Myostatin_99_v170] ({CH2CO}-[Gly(N(CH2)3COOH)]A[Trp(7-aza)]Y[NMeF]I[Sar][4Pal][Phe(4-COOH)]R[NMeF][X1][NMeA][NMeF][dC]-OH; thioether N-15)", "values": [{"measurement": "IC50", "setting": "Myostatin [1]", "value": 0.0033, "unit": "µM"}, {"measurement": "Selectivity", "setting": "Myostatin [2]", "value": 65}, {"measurement": "IC50", "setting": "GDF-11", "value": 0.215, "unit": "µM"}]}
{"compound": "CC[C@H](C)[C@@H]1NC(=O)[C@H](Cc2ccccc2)N(C)C(=O)[C@H](Cc2ccc(O)cc2)NC(=O)[C@H](Cc2c[nH]c3ccccc23)NC(=O)[C@H](CO)NC(=O)CN(CCCC(=O)O)C(=O)CSC[C@H](C(=O)O)NC(=O)[C@H](Cc2ccccc2)N(C)C(=O)[C@H](C)N(C)C(=O)[C@H](CC(C)C)NC(=O)[C@H](Cc2ccccc2)N(C)C(=O)[C@H](CCCNC(=N)N)NC(=O)[C@H](Cc2ccc(C(=O)O)cc2)NC(=O)[C@H](Cc2ccc(O)cc2)NC(=O)CN(C)C1=O", "note": "[Myostatin_99_v171] ({CH2CO}-[Gly(N(CH2)3COOH)]SWY[NMeF]I[Sar]Y[Phe(4-COOH)]R[NMeF]L[NMeA][NMeF][dC]-OH; thioether N-15)", "values": [{"measurement": "IC50", "setting": "Myostatin [1]", "value": 0.0447, "unit": "µM"}, {"measurement": "Selectivity", "setting": "Myostatin [2]", "value": 20}, {"measurement": "IC50", "setting": "GDF-11", "value": 0.909, "unit": "µM"}]}
{"compound": "CC[C@H](C)[C@@H]1NC(=O)[C@H](Cc2ccccc2)N(C)C(=O)[C@H](Cc2ccc(O)cc2)NC(=O)[C@H](Cc2c[nH]c3ccccc23)NC(=O)[C@H](C)NC(=O)[C@H](C)NC(=O)CSC[C@H](C(=O)O)NC(=O)[C@H](Cc2ccccc2)N(C)C(=O)[C@H](C)N(C)C(=O)[C@H](CC(C)C)NC(=O)[C@H](Cc2ccccc2)N(C)C(=O)[C@H](CCCNC(=N)N)NC(=O)[C@H](Cc2ccc(C(=O)O)cc2)NC(=O)[C@H](Cc2ccc(O)cc2)NC(=O)CN(C)C1=O", "note": "[Myostatin_99_v172] ({CH2CO}-AAWY[NMeF]I[Sar]Y[Phe(4-COOH)]R[NMeF]L[NMeA][NMeF][dC]-OH; thioether N-15)", "values": [{"measurement": "IC50", "setting": "Myostatin [1]", "value": 0.0051, "unit": "µM"}, {"measurement": "Selectivity", "setting": "Myostatin [2]", "value": 34}, {"measurement": "IC50", "setting": "GDF-11", "value": 0.173, "unit": "µM"}]}
{"compound": "CCCCCCC[C@@H]1NC(=O)[C@H](Cc2ccccc2)N(C)C(=O)[C@H](CCCNC(=N)N)NC(=O)[C@H](Cc2ccc(C(=O)O)cc2)NC(=O)[C@H](Cc2ccc(O)cc2)NC(=O)CN(C)C(=O)[C@H]([C@@H](C)CC)NC(=O)[C@H](Cc2ccccc2)N(C)C(=O)[C@H](Cc2ccc(O)cc2)NC(=O)[C@H](Cc2c[nH]c3ccccc23)NC(=O)[C@H](CO)NC(=O)CN(CCCC(=O)O)C(=O)CSC[C@H](C(=O)O)NC(=O)[C@H](Cc2ccccc2)N(C)C(=O)[C@H](C)N(C)C1=O", "note": "[Myostatin_99_v173] ({CH2CO}-[Gly(N(CH2)3COOH)]SWY[NMeF]I[Sar]Y[Phe(4-COOH)]R[NMeF][X1][NMeA][NMeF][dC]-OH; thioether N-15)", "values": [{"measurement": "IC50", "setting": "Myostatin [1]", "value": 0.0055, "unit": "µM"}, {"measurement": "Selectivity", "setting": "Myostatin [2]", "value": 42}, {"measurement": "IC50", "setting": "GDF-11", "value": 0.232, "unit": "µM"}]}
{"compound": "CCCCCCC[C@@H]1NC(=O)[C@H](Cc2ccccc2)N(C)C(=O)[C@H](CCCNC(=N)N)NC(=O)[C@H](Cc2ccc(C(=O)O)cc2)NC(=O)[C@H](Cc2cccc(OCC(=O)O)c2)NC(=O)CN(C)C(=O)[C@H]([C@@H](C)CC)NC(=O)[C@H](Cc2ccccc2)N(C)C(=O)[C@H](Cc2ccc(O)cc2)NC(=O)[C@H](Cc2c[nH]c3ccccc23)NC(=O)[C@H](C)NC(=O)[C@H](C)NC(=O)CSC[C@H](C(=O)O)NC(=O)[C@H](Cc2ccccc2)N(C)C(=O)[C@H](C)N(C)C1=O", "note": "[Myostatin_99_v174] ({CH2CO}-AAWY[NMeF]I[Sar][Phe(3-OCH2COOH)][Phe(4-COOH)]R[NMeF][X1][NMeA][NMeF][dC]-OH; thioether N-15)", "values": [{"measurement": "IC50", "setting": "Myostatin [1]", "value": 0.0017, "unit": "µM"}, {"measurement": "Selectivity", "setting": "Myostatin [2]", "value": 133}, {"measurement": "IC50", "setting": "GDF-11", "value": 0.226, "unit": "µM"}]}
{"compound": "CC[C@H](C)[C@@H]1NC(=O)[C@H](Cc2ccccc2)N(C)C(=O)[C@H](Cc2ccc(O)cc2)NC(=O)[C@H](Cc2c[nH]c3ccccc23)NC(=O)[C@H](CO)NC(=O)[C@H](C)NC(=O)CSC[C@H](C(=O)O)NC(=O)[C@H](Cc2ccccc2)N(C)C(=O)[C@H](C)N(C)C(=O)[C@H](CC(C)C)NC(=O)[C@H](Cc2ccccc2)N(C)C(=O)[C@H](CCCNC(=N)N)NC(=O)[C@H](Cc2ccc(C(=O)O)cc2)NC(=O)[C@H](Cc2ccc(O)cc2)NC(=O)CN(C)C1=O", "note": "[Myostatin_99_v175] ({CH2CO}-ASWY[NMeF]I[Sar]Y[Phe(4-COOH)]R[NMeF]L[NMeA][NMeF][dC]-OH; thioether N-15)", "values": [{"measurement": "IC50", "setting": "Myostatin [1]", "value": 0.0164, "unit": "µM"}, {"measurement": "Selectivity", "setting": "Myostatin [2]", "value": 24}, {"measurement": "IC50", "setting": "GDF-11", "value": 0.399, "unit": "µM"}]}
